Reference: patent US6472418B1, “Non-peptide NK1 receptors antagonists” (Warner-Lambert Company, priority 1998, dated 2002)

These compounds were tested against T1, Human NK1 Receptor (Homo sapiens, UniProt P25103) (assay: In Vitro Human NK1 Receptor Binding Assay ([125I]Bolton-Hunter substance P displacement, IM9 cells)). Conditions: human NK1 receptor, IM9 cells, [125I]Bolton-Hunter substance P; read-out: IC50 (nM) hNK1.
T1 construct: endogenous in cells; host or cells: Human lymphoma IM9 cells (whole cells)
Summary of the method: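 Test compounds competed with 0.05-0.1 nM [125I]Bolton-Hunter substance P for binding to intact IM9 cells over 50 min at 21° C, pH 7.4 buffer with MnCl2 and peptidase inhibitors. […] [Sar9, Met(O2)11] substance P gave non-specific binding. Bound counts were measured after filtration and fitted iteratively.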

T1 sequence (P25103 whole entry): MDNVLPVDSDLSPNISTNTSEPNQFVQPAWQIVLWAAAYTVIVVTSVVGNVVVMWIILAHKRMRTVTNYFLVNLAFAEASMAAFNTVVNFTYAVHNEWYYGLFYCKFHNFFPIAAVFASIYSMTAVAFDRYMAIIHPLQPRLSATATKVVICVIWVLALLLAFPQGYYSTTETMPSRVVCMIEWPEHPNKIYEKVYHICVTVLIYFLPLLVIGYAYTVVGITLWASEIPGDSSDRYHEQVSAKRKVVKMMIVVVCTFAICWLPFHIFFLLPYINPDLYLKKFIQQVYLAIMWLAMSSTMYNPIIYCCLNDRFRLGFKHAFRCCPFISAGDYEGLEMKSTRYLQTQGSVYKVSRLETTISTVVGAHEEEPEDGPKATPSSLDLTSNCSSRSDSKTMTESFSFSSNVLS

Structure (SMILES)	IC50 [nM]
CC(Cc1c[nH]c2ccccc12)(NCc1cc2ccccc2o1)C(=O)NC1NC(=O)c2ccccc21 (centres unmarked) [compound 85]	2440
CC1CCCC(C)N1CCCCNC(=O)C(C)(Cc1c[nH]c2ccccc12)NCc1cc2ccccc2o1 (centres unmarked) [compound 88, 2-[(Benzofuran-2-ylmethyl)-amino]-N-[4-(2,6-dimethyl-piperidin-1-yl)-butyl]-3-(1H-indol-3-yl)-2-methyl-propionamide]	> 10000
CC(Cc1c[nH]cn1)NC(=O)C(C)(Cc1c[nH]c2ccccc12)NCc1cc2ccccc2o1 (centres unmarked) [compound 90, 2-[(Benzofuran-2-ylmethyl)-amino]-N-[2-(1H-imidazol-4-yl)-1-methyl-ethyl]-3-(1H-indol-3-yl)-2-methyl-propionamide]	> 10000
CC(Cc1c[nH]c2ccccc12)(NCc1cc2ccccc2o1)C(=O)NCCCN1CCCC1=O (centres unmarked) [compound 91]	> 10000
CC(CN1CCCC1=O)NC(=O)C(C)(Cc1c[nH]c2ccccc12)NCc1cc2ccccc2o1 (centres unmarked) [compound 93, 2-[(Benzofuran-2-ylmethyl)-amino]-3-(1H-indol-3-yl)-2-methyl-N-[1-methyl-2-(2-oxo-pyrrolidin-1-yl)-ethyl]-propionamide]	> 10000
CC1CCC(C)N1CCCCNC(=O)C(C)(Cc1c[nH]c2ccccc12)NCc1cc2ccccc2o1 (centres unmarked) [compound 94, 2-[(Benzofuran-2-ylmethyl)-amino]-N-[4-(2,5-dimethyl-pyrrolidin-1-yl)-butyl]-3-(1H-indol-3-yl)-2-methyl-propionamide]	> 10000
CC(Cc1c[nH]c2ccccc12)(NCc1cc2ccccc2o1)C(=O)NCC(=O)c1nc[nH]c1N (centres unmarked) [compound 95, N-[2-(5-Amino-1H-imidazol-4-yl)-2-oxo-ethyl]-2-[(benzofuran-2-ylmethyl)-amino]-3-(1H-indol-3-yl)-2-methyl-propionamide]	> 10000
CC(Cc1c[nH]c2ccccc12)(NCc1cc2ccccc2o1)C(=O)NCCN1CCOC1=O (centres unmarked) [compound 96, 2-[(Benzofuran-2-ylmethyl)-amino]-3-(1H-indol-3-yl)-2-methyl-N-[2-(2-oxo-oxazolidin-3-yl)-ethyl]-propionamide]	> 10000

Further lines, results first:

IC50 [nM]	Structure (SMILES)
3520	CN(C)CCNC(=O)C(C)(Cc1c[nH]c2ccccc12)NCc1cc2ccccc2o1 (centres unmarked) [compound 83, 2-[(Benzofuran-2-ylmethyl)-amino]-N-(2-dimethylamino-ethyl)-3-(1H-indol-3-yl)-2-methyl-propionamide]
> 10000	CC(Cc1c[nH]c2ccccc12)(NCc1cc2ccccc2o1)C(=O)NCC(CC(=O)O)c1ccc(Cl)cc1 (centres unmarked) [compound 84, 4-[2-[(Benzofuran-2-ylmethyl)-amino]-3-(1H-indol-3-yl)-2-methyl-propionylamino]-3-(4-chloro-phenyl)-butyric acid]
> 10000	CC(Cc1c[nH]c2ccccc12)(NCc1cc2ccccc2o1)C(=O)NCCN1CCNC1=O (centres unmarked) [compound 86, 2-[(Benzofuran-2-ylmethyl)-amino]-3-(1H-indol-3-yl)-2-methyl-N-[2-(2-oxo-imidazolidin-1-yl)-ethyl]-propionamide]
> 10000	CC(Cc1c[nH]c2ccccc12)(NCc1cc2ccccc2o1)C(=O)NCCCN1CCN(c2ccccn2)CC1 (centres unmarked) [compound 87, 2-[(Benzofuran-2-ylmethyl)-amino]-3-(1H-indol-3-yl)-2-methyl-N-[3-(4-pyridin-2-yl-piperazin-1-yl)-propyl]-propionamide]
6740	CC(Cc1c[nH]c2ccccc12)(NCc1cc2ccccc2o1)C(=O)NC1(CN2CCCCC2)CCCCC1 (centres unmarked) [compound 89, 2-[(Benzofuran-2-ylmethyl)-amino]-3-(1H-indol-3-yl)-2-methyl-N-(1-piperidin-1-ylmethyl-cyclohexyl)-propionamide]
2290	CC(C)NC(=O)C(C)(Cc1c[nH]c2ccccc12)NCc1cc2ccccc2o1 (centres unmarked) [compound 92, 2-[(Benzofuran-2-ylmethyl)-amino]-3-(1H-indol-3-yl)-N-isopropyl-2-methyl-propionamide]
